# Reference: patent US8198335B2, “Cosmetic material” (Parahermosa Co., Ltd., priority 2009, dated 2012)
# Experiment: not given
# Settings: solvent 2-ethyl hexyl para-methoxy cinnamate; cited from earlier work
row,Compound,dissolves in 2-ethyl hexyl para-methoxy cinnamate [%]
1,CCCCCCOC(=O)c1ccccc1C(=O)c1ccc(N(CC)CC)cc1O [diethyl amino hydroxy benzoyl hexyl benzoate],42

# Same assay, conditions: solvent cyclomethicone (volatile silicone); cited from earlier work
row,Compound,dissolves in cyclomethicone [%]
1,CCCCCCOC(=O)c1ccccc1C(=O)c1ccc(N(CC)CC)cc1O [diethyl amino hydroxy benzoyl hexyl benzoate],0.4

# Same assay, conditions: solvent octyl para-methoxy cinnamate; cited from earlier work
row,Compound,dissolves in octyl para-methoxy cinnamate
1,CCCCCCOC(=O)c1ccccc1C(=O)c1ccc(N(CC)CC)cc1O [diethyl amino hydroxy benzoyl hexyl benzoate],up to 42 percent by mass

# Experiment: Check for precipitation of crystal in 1:1 mixtures of oil solution and diethyl amino hydroxy benzoyl hexyl benzoate kept at 5° C.
# Format: physicochemical
# Parameters: key to Evaluation results 1 week / Evaluation results Following day / Evaluation results Same day: X: Evaluation results accompanied by an x in Table 2 indicate that crystal had precipitated at the applicable point in time
# Settings: 1:1 by mass with diethyl amino hydroxy benzoyl hexyl benzoate, heated to 80° C., cooled, kept at 5° C.; checked after half a day
# From the text: Evaluation results accompanied by an x in Table 2 indicate that crystal had precipitated at the applicable point in time.
row,Evaluation results Same day,Compound
1,X,"CCCCCCCCCCCCCC(=O)OCC(CCCCCCCC)CCCCCCCCCC (centres unmarked) [Component 34, Octyl dodecyl myristate]"
2,X,"CCCCCCCC(=O)OCC(C)(C)COC(=O)CCCCCCC [Component 53, Neopentyl glycol dicaprylate]"
3,X,"CCCCCCCCOC(=O)OCCCCCCCC [Component 57, Dicapryl carbonate]"
4,X,"COc1ccc(C(=O)c2ccccc2)c(O)c1 [Component 59, Benzophenone-3]"
5,X,"CCCCCCCCCCCCCCCCCCO [Component 61, Stearyl alcohol]"
6,X,Cyclomethicone [Component 64]

# Further lines, the compound ahead of its results:
row,Compound,Evaluation results Same day
1,"CC(C)CCCC(C)CCCC(C)CCCCC(C)CCCC(C)CCCC(C)C (centres unmarked) [Component 26, Squalane]",X
2,"OCC(O)CO [Component 31, Glycerin]",X
3,"CCCCCCCCCCCCCCCC(=O)OC(C)C [Component 33, Isopropyl palmitate]",X
4,DPG [Component 22],X

# Same assay, conditions: 1:1 by mass with diethyl amino hydroxy benzoyl hexyl benzoate, kept at 5° C.; checked after one day
row,Evaluation results Following day,Compound
1,X,"CCCCC(CC)C(=O)OCC(CC)(CO)COCC(CC)(COC(=O)C(CC)CCCC)COC(=O)C(CC)CCCC (centres unmarked) [Component 44, Ditrimethylol propane triethyl hexanoate]"
2,X,"CC(C)CCCCCCCCCCCCCCCOC(=O)CC(O)C(=O)OCCCCCCCCCCCCCCCC(C)C (centres unmarked) [Component 47, Diisostearyl malate]"
3,X,"CCCCC(CC)C(=O)OCC(COC(=O)C(CC)CCCC)OC(=O)C(CC)CCCC (centres unmarked) [Component 50, Triethyl hexanoin]"
4,X,"CCCCC(CC)C(=O)OCC(C)(C)COC(=O)C(CC)CCCC (centres unmarked) [Component 51, Neopentyl glycol diethyl hexanoate]"
5,X,"CCCCCCCCCCC(CCCCCCCC)COC(=O)C(C)O (centres unmarked) [Component 52, Octyl dodecyl lactate]"
6,X,"CCCCCCCCOCCCCCCCC [Component 58, Dioctyl ether]"
7,X,C12-15 alkyl benzoate [Component 62]
8,X,Diglyceryl tetraisostearate [Component 49]
9,X,Ditrimethylol propane (isostearate/sebacate) [Component 46]
10,X,Sorbitan isostearate [Component 36]
11,X,Sorbitan sesquioleate [Component 35]

# More lines, now with the values behind:
row,Compound,Evaluation results Following day
1,"CC(C)CCCCCCCCCCOC(=O)CCCCCC(C)C [Component 17, Isotridecyl isononanate]",X
2,"CCO [Component 18, Ethanol (99%)]",X
3,"CCCCCCCCCCCCCCCCOC(=O)C(CC)CCCC (centres unmarked) [Component 19, Cetyl ethyl hexanoate]",X
4,"CCCCCCCCCCCCCCCC(=O)OCC(CC)CCCC (centres unmarked) [Component 20, Ethyl hexyl palmitate]",X
5,"CCCCC(CC)C(=O)OCC(COC(=O)C(CC)CCCC)OC(=O)C(CC)CCCC (centres unmarked) [Component 21, Glycerin tri 2-ethyl hexanoate]",X
6,"CC(C)CCCCCCOC(=O)CCCCCC(C)C [Component 25, Isononyl isononanate]",X
7,"CCCCCCCCCCC(CO)CCCCCCCC (centres unmarked) [Component 29, Octyl dodecanol]",X
8,"CCCCCCCC(=O)OCC(C)OC(=O)CCCCCCC (centres unmarked) [Component 30, Propylene glycol dicaprylate]",X
9,"CC(O)CCO (centres unmarked) [Component 32, 1,3-BG]",X
10,DPG [Component 22],X
11,Erythrityl triethyl hexanoate [Component 45],X
12,Glycerin tri (capryl/caprate) [Component 28],X

# Same assay, conditions: 1:1 by mass with diethyl amino hydroxy benzoyl hexyl benzoate, kept at 5° C.; checked after one week
row,Evaluation results 1 week,Compound
1,X,"CCCCCCC(O)CCCCCCCCCCC(=O)OCC(CC)CCCC (centres unmarked) [Component 16, Octyl hydroxyl stearate (monomer)]"
2,X,"CCCCC(CC)COC(=O)/C=C/c1ccc(OC)cc1 (centres unmarked) [Component 56, Ethyl hexyl para-methoxy cinnamate]"

# Same assay, conditions: 1:1 by mass with diethyl amino hydroxy benzoyl hexyl benzoate, kept at 5° C.; checked after six months
row,Evaluation results 6 months,Compound
1,◯,Octyl hydroxyl stearate oligomer (dimmer) [Component 1]
2,◯,Octyl hydroxyl stearate oligomer (heptamer) [Component 6]
3,◯,Octyl hydroxyl stearate oligomer (hexamer) [Component 5]
4,◯,Octyl hydroxyl stearate oligomer (pentamer) [Component 4]

row,Compound,Evaluation results 6 months
1,Octyl hydroxyl stearate oligomer (tetramer) [Component 3],◯
2,Octyl hydroxyl stearate oligomer (trimer) [Component 2],◯

# Same assay, conditions: summary of Table 2, 5° C.
row,"precipitation of crystal / stability of the 1:1 mixture, in words",Compound
1,crystal precipitated after one week,"CCCCCCC(O)CCCCCCCCCCC(=O)OCC(CC)CCCC (centres unmarked) [Component 16, Octyl hydroxyl stearate (monomer)]"

# Experiment: Low-temperature behaviour of octyl hydroxy stearate monomer and oligomers (clouding point, liquid state)
# Format: physicochemical
# Settings: not given
# From the text: A monomer of octyl hydroxy stearate has problems in terms of stable dissolution of poorly soluble substances, while an octamer and above lead to poor self-condensing property of 12-hydroxy stearate and result in a broad distribution of molecular weight, which in turn causes unstable quality, solidification at temperatures below zero, and undesirable touch and other tactile senstations. For example, a monomer of octyl hydroxy stearate is a low-viscosity oil which is non-sticky and has a clean touch and also offers excellent oxidization stability. However, its clouding point is high, or at approx. 20° C., and thus crystal generates in the solution or the entire formulation solidifies in winter, resulting in markedly lower feeling of use and other problems such as the formulation not coming out of the container due to an increased viscosity. An octamer has similar problems. A dimer of octyl hydroxy stearate is structurally a monomer with one more molecule unit. However, it has substantially different chemical properties.
row,clouding point,Compound
1,approx. 20 °C,"CCCCCCC(O)CCCCCCCCCCC(=O)OCC(CC)CCCC (centres unmarked) [Component 16, Octyl hydroxyl stearate (monomer)]"

# Same assay, conditions: 5° C.
row,state at 5° C.,Compound
1,remains permanently liquid,Octyl hydroxyl stearate oligomer (dimmer) [Component 1]
